Patent US20230382924A1, “MODULATORS OF CYSTIC FIBROSIS TRANSMEMBRANE CONDUCTANCE REGULATOR” (VERTEX PHARMACEUTICALS INCORPORATED, priority 2020, published 2023)
Read-outs that look alike come from different tables or passages of the source.

How the values were obtained:
CFTR [1] = target: T1, CFTR (Homo sapiens, UniProt P13569); test: Membrane Potential Dye, Enteroid Assay A; format: cell-based; conditions: for EC50: read-out: Ent. A EC50
Outline: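 Signal is reported as % Activity relative to a triple CFTR modulator control (3 μM + 3 μM + 300 nM acute). Read-out: membrane potential fluorescence (20 μM methyl oxonol) monitored for 15 min after chloride-free stimulation. Dye loading took 25 min at room temperature in Bath 1 buffer containing CaCC blockers.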

CFTR [2] = target: T1, CFTR; test: Membrane Potential Dye, Enteroid Assay B; format: cell-based; conditions: for EC50: read-out: Ent. B EC50
Outline: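 Enteroid cells loaded 25 min at room temperature with 20 μM methyl oxonol plus 30 μM CaCCinh-A01 and 30 μM Chicago Sky Blue, then switched to chloride-free gluconate buffer. Chloride transport was started by chloride-free stimulation solution, with fluorescence read for 15 min.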

F508del = target: T2, F508del (Homo sapiens, UniProt P13569, DEL508-508); test: 3T3 assay: membrane potential optical assay for F508del correction in NIH 3T3 cells; format: cell-based
T2 construct: expressed in transfected cells
Text: 1. Membrane Potential Optical Methods for Assaying F508del Modulation Properties of Compounds
The assay utilizes fluorescent voltage sensing dyes to measure changes in membrane potential using a fluorescent plate reader (e.g., FLIPR III, Molecular Devices, Inc.) as a readout for increase in functional F508del in NIH 3T3 cells. The driving force for the response is the creation of a chloride ion gradient in conjunction with channel activation by a single liquid addition step after the cells have previously been treated with compounds and subsequently loaded with a voltage sensing dye.
2. Identification of Corrector Compounds
To identify correctors of F508del, a single-addition HTS assay format was developed. This HTS assay utilizes fluorescent voltage sensing dyes to measure changes in membrane potential on the FLIPR III as a measurement for increase in gating (conductance) of F508del in F508del NIH 3T3 cells. The F508del NIH 3T3 cell cultures were incubated with the corrector compounds at a range of concentrations for 18-24 hours at 37° C., and subsequently loaded with a redistribution dye. The driving force for the response is a Cl^− ion gradient in conjunction with channel activation with forskolin in a single liquid addition step using a fluorescent plate reader such as FLIPR III.
Bath Solution #1: (in mM) NaCl 160, KCl 4.5, CaCl2) 2, MgCl2 1, HEPES 10, pH 7.4 with NaOH.
Chloride-free bath solution: Chloride salts in Bath Solution #1 (above) are substituted with gluconate salts.
NIH3T3 mouse fibroblasts stably expressing F508del are used for optical measurements of membrane potential. The cells are maintained at 37° C. in 5% CO2 and 90% humidity in Dulbecco's modified Eagle's medium supplemented with 2 mM glutamine, 10% fetal bovine serum, 1×NEAA, b-ME, 1×pen/strep, and 25 mM HEPES in 175 cm^2 culture flasks. For all optical assays, the cells were seeded at ˜20,000/well in 384-well matrigel-coated plates. For the correction assays, the cells are cultured at 37° C. with and without compounds for 16-24 hours.

[3] = NIH 3T3 cells, F508del correction

T1 sequence (P13569 with tags, fused parts or gaps DEL508-508): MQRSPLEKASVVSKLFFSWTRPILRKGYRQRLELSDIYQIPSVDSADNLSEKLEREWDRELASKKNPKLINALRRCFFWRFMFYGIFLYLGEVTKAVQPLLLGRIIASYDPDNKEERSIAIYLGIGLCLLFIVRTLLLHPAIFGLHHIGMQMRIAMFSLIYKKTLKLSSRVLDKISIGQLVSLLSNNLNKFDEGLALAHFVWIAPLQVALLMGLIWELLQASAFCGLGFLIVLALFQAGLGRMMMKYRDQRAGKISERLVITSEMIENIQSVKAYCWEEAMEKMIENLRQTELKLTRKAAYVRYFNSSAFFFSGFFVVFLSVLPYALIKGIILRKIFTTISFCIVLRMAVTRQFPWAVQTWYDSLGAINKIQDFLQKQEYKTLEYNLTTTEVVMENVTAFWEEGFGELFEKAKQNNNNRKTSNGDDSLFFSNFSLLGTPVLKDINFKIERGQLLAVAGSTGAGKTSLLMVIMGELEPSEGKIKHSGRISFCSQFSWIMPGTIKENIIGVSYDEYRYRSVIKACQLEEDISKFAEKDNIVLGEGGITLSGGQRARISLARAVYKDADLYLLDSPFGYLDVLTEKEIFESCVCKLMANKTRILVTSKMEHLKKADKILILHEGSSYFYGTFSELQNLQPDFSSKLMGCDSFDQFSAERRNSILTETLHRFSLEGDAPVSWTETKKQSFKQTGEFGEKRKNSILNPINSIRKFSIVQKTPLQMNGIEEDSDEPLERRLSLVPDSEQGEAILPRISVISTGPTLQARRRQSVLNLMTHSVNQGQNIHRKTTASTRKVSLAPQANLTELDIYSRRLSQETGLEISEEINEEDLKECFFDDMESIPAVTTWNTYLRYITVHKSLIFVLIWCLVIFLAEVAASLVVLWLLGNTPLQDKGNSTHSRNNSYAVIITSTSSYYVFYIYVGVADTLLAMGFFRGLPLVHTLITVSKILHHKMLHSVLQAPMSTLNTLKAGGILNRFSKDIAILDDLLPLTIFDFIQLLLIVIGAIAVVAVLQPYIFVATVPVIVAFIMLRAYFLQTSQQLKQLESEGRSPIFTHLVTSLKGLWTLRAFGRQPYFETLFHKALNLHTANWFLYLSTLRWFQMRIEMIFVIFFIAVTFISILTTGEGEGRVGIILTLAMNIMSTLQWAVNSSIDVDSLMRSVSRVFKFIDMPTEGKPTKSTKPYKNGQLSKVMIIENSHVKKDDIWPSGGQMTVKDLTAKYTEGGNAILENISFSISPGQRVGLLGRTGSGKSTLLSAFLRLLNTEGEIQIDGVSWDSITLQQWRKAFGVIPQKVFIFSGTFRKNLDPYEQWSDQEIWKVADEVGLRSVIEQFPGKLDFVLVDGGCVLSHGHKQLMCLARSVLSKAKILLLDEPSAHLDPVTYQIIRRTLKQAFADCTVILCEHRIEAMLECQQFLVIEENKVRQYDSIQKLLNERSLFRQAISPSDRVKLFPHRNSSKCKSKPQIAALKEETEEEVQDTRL
T2 sequence (P13569 with tags, fused parts or gaps DEL508-508): as above

Cc1cccc(C)c1-c1cc2nc(n1)NS(=O)(=O)c1cccc(c1)C(=O)NC[C@@H](c1ccccc1)O2 [Compound 25, (10R)-6-(2,6-Dimethylphenyl)-2,2-dioxo-10-phenyl-9-oxa-2λ^6-thia-3,5,12,19-tetrazatricyclo[12.3.1.14,8]nonadeca-1(18),4(19),5,7,14,16-hexaen-13-one]
Ent. A Max Activity (CFTR [1]; Enteroid Assay A): +++ (+++ is >600%)
EC50 (CFTR [1]; Enteroid Assay A): < 1000 nM
ring closure, yield after HPLC (from Cc1cccc(C)c1-c1cc(O[C@@H](CN)c2ccccc2)nc(NS(=O)(=O)c2cccc(C(=O)O)c2)n1, amide bond, 13-membered ring, HATU/DIEA, DMF, 25.9 mM, 25.0 °C, 1.0 h, 2 steps): 23%
Ent. B Max Activity (CFTR [2]; Enteroid Assay B): ++ (++ is 30-60%)
EC50 (CFTR [2]; Enteroid Assay B): < 1000 nM

Cc1cc2cc(c1)S(=O)(=O)Nc1nc(cc(-c3c(C)cccc3C)n1)OC[C@@H](CC1CCCCC1)NC2=O [Compound 74, (11R)-11-(Cyclohexylmethyl)-6-(2,6-dimethylphenyl)-16-methyl-2,2-dioxo-9-oxa-2λ^6-thia-3,5,12,19-tetrazatricyclo[12.3.1.14,8]nonadeca-1(18),4(19),5,7,14,16-hexaen-13-one]
Ent. A Max Activity (CFTR [1]; Enteroid Assay A): +++ (+++ is >600%)
EC50 (CFTR [1]; Enteroid Assay A): < 1000 nM
EC50 (F508del; [3]): < 1000 nM
ring closure, yield after HPLC (from Cc1cc(C(=O)O)cc(S(=O)(=O)Nc2nc(OC[C@H](N)CC3CCCCC3)cc(-c3c(C)cccc3C)n2)c1, amide bond, 13-membered ring, HATU/TEA, DMF, 39.0 mM, 0.42 h): 28%

Cc1cccc(C)c1-c1cc2nc(n1)NS(=O)(=O)c1cc(n(C)n1)C(=O)N[C@H](CC(C)C)CO2 [Compound 76, (10R)-15-(2,6-Dimethylphenyl)-10-isobutyl-6-methyl-3,3-dioxo-12-oxa-3λ^6-thia-2,5,6,9,16,17-hexazatricyclo[11.3.1.14,7]octadeca-1(17),4,7(18),13,15-pentaen-8-one]
ring closure, yield after HPLC (from Cc1cccc(C)c1-c1cc(OC[C@H](N)CC(C)C)nc(NS(=O)(=O)c2cc(C(=O)O)n(C)n2)n1, amide bond, 13-membered ring, HATU/DIEA, DMF, 3.1 mM, 25.0 °C, 2.0 h): 33%
Ent. B Max Activity (CFTR [2]; Table 9): +++ (+++ is >60%)
EC50 (CFTR [2]; Table 9): 1000 to 3000 nM

Cc1cccc(C)c1-c1cc2nc(n1)NS(=O)(=O)c1cccc(c1)C(=O)N[C@H](CC1CCC1)CO2 [Compound 113, (11R)-11-(cyclobutylmethyl)-6-(2,6-dimethylphenyl)-9-oxa-2λ^6-thia-3,5,12,19-tetraazatricyclo[12.3.1.14,8]nonadeca-1(17),4,6,8(19),14(18),15-hexaene-2,2,13-trione]
Ent. A Max Activity (CFTR [1]; Enteroid Assay A): +++ (+++ is >600%)
EC50 (CFTR [1]; Enteroid Assay A): < 1000 nM
EC50 (F508del; [3]): < 1000 nM
ring closure, yield after HPLC (from Cc1cccc(C)c1-c1cc(OC[C@H](N)CC2CCC2)nc(NS(=O)(=O)c2cccc(C(=O)O)c2)n1, amide bond, 13-membered ring, HATU/DIEA, DMF, 65.5 mM, 25.0 °C, 1.0 h, 2 steps): 21%

Cc1cccc(C)c1-c1cc2nc(n1)NS(=O)(=O)c1cccc(c1)C(=O)N[C@H](CCC(C)C)CO2 [Compound 46, (11R)-6-(2,6-dimethylphenyl)-11-(3-methylbutyl)-9-oxa-2λ^6-thia-3,5,12,19-tetraazatricyclo[12.3.1.14,8]nonadeca-1(17),4,6,8(19),14(18),15-hexaene-2,2,13-trione]
Ent. A Max Activity (CFTR [1]; Enteroid Assay A): +++ (+++ is >600%)
EC50 (CFTR [1]; Enteroid Assay A): < 1000 nM
EC50 (F508del; [3]): < 1000 nM
ring closure, yield after HPLC (from Cc1cccc(C)c1-c1cc(OC[C@H](N)CCC(C)C)nc(NS(=O)(=O)c2cccc(C(=O)O)c2)n1, amide bond, 13-membered ring, HATU/DIEA, DMF, 9.1 mM, 25.0 °C, 1.0 h, 3 steps): 3%

Cc1cccc(C)c1-c1cc2nc(n1)NS(=O)(=O)c1cccc(c1)NC(=O)Nc1cccc(c1)O2 [Compound 1, 5-(2,6-Dimethylphenyl)-9,9-dioxo-2-oxa-9λ^6-thia-6,8,15,17,24-pentazatetracyclo[16.3.1.13,7.110,14]tetracosa-1(21),3,5,7(24),10(23),11,13,18(22),19-nonaen-16-one]
Ent. A Max Activity (CFTR [1]; Enteroid Assay A): ++ (++ is 30-60%)
EC50 (CFTR [1]; Enteroid Assay A): 1000 to 3000 nM
EC50 (F508del; [3]): 1000 to 3000 nM
ring closure, yield after HPLC (from 3-amino-N-[4-(3-aminophenoxy)-6-(2,6-dimethylphenyl)pyrimidin-2-yl]benzenesulfonamide (Dihydrochloride salt), crosslinker bond, 15-membered ring, 1,3-dimethyl-tetrahydro-pyrimidin-2-one, 26.2 mM): 13%

Cc1cccc(C)c1-c1cc2nc(n1)NS(=O)(=O)c1cccc(c1)C(=O)N[C@H](CC(C)C)CO2 [Compound 96, (11R)-6-(2,6-Dimethylphenyl)-11-isobutyl-2,2-dioxo-9-oxa-2λ^6-thia-3,5,12,19-tetrazatricyclo[12.3.1.14,8]nonadeca-1(18),4(19),5,7,14,16-hexaen-13-one]
Ent. A Max Activity (CFTR [1]; Enteroid Assay A): +++ (+++ is >600%)
EC50 (CFTR [1]; Enteroid Assay A): < 1000 nM
EC50 (F508del; [3]): < 1000 nM
ring closure, yield after HPLC (from Cc1cccc(C)c1-c1cc(OC[C@H](N)CC(C)C)nc(NS(=O)(=O)c2cccc(C(=O)O)c2)n1, amide bond, 13-membered ring, HATU/TEA, DMF, 31.8 mM, 25.0 °C, 3.0 h): 57%
EC50 (CFTR [2]; Enteroid Assay B): < 1000 nM

Cc1cccc(C)c1-c1cc2nc(n1)NS(=O)(=O)c1cccc(c1C)C(=O)N[C@H](CC1CCCCC1)CO2 [Compound 75, (11R)-11-(Cyclohexylmethyl)-6-(2,6-dimethylphenyl)-18-methyl-9-oxa-2λ^6-thia-3,5,12,19-tetraazatricyclo[12.3.1.14,8]nonadeca-1(17),4(19),5,7,14(18),15-hexaene-2,2,13-trione]
Ent. A Max Activity (CFTR [1]; Table 8): +++ (+++ is >60%)
EC50 (CFTR [1]; Table 8): < 1000 nM
Emax (F508del; NIH3T3, Table 8, read-out: 3T3 Max Activity): > 60%
EC50 (F508del; Table 8): < 1000 nM
ring closure, yield after HPLC (from Cc1cccc(C)c1-c1cc(OC[C@H](N)CC2CCCCC2)nc(NS(=O)(=O)c2cccc(C(=O)O)c2C)n1, amide bond, 13-membered ring, HATU/TEA, DMF, 40.1 mM, 0.42 h): 8%

Cc1cccc(C)c1-c1cc2nc(n1)NS(=O)(=O)c1cncc(n1)C(=O)N[C@H](CC(C)C)CO2 [Compound 70, (11R)-6-(2,6-dimethylphenyl)-11-isobutyl-2,2-dioxo-9-oxa-2λ^6-thia-3,5,12,16,18,19-hexazatricyclo[12.3.1.14,8]nonadeca-1(18),4(19),5,7,14,16-hexaen-13-one]
ring closure, yield after HPLC (from Cc1cccc(C)c1-c1cc(OC[C@H](N)CC(C)C)nc(NS(=O)(=O)c2cncc(C(=O)O)n2)n1, amide bond, 13-membered ring, HATU/DIEA, DMF, 18.6 mM, 25.0 °C, 25.0 h): 29%
Ent. B Max Activity (CFTR [2]; Table 9): +++ (+++ is >60%)
EC50 (CFTR [2]; Table 9): < 1000 nM

Cc1cccc(C)c1-c1cc2nc(n1)NS(=O)(=O)c1cccc(c1)C(=O)NCC(c1ccc(C(C)(C)C)cn1)O2 (centres unmarked) [Compound 6, 10-(5-tert-Butyl-2-pyridyl)-6-(2,6-dimethylphenyl)-2,2-dioxo-9-oxa-2λ^6-thia-3,5,12,19-tetrazatricyclo[12.3.1.14,8]nonadeca-1(18),4(19),5,7,14,16-hexaen-13-one]
EC50 (CFTR [1]; Table 8): < 1000 nM
ring closure, yield after HPLC (from Cc1cccc(C)c1-c1cc(OC(CN)c2ccc(C(C)(C)C)cn2)nc(NS(=O)(=O)c2cccc(C(=O)O)c2)n1, amide bond, 13-membered ring, HATU/DIEA, DMF, 40.9 mM, 25.0 °C, 0.25 h): 33%

Cc1cccc(C)c1-c1cc2nc(n1)NS(=O)(=O)c1cccc(c1)C(=O)N[C@H](CC1CC1)CO2 [Compound 114, (11R)-11-(Cyclopropylmethyl)-6-(2,6-dimethylphenyl)-9-oxa-2λ^6-thia-3,5,12,19-tetraazatricyclo[12.3.1.14,8]nonadeca-1(17),4(19),5,7,14(18),15-hexaene-2,2,13-trione]
Ent. A Max Activity (CFTR [1]; Enteroid Assay A): +++ (+++ is >600%)
EC50 (CFTR [1]; Enteroid Assay A): < 1000 nM
ring closure, yield after HPLC (from Cc1cccc(C)c1-c1cc(OC[C@H](N)CC2CC2)nc(NS(=O)(=O)c2cccc(C(=O)O)c2)n1, amide bond, 13-membered ring, HATU/TEA, DMF, 18.8 mM, 17.0 h): 61%

Cc1cccc(C)c1-c1cc2nc(n1)NS(=O)(=O)c1cccc(c1)C(=O)NC[C@@H](C)O2 [Compound 28, (10R)-6-(2,6-dimethylphenyl)-10-methyl-2,2-dioxo-9-oxa-2λ^6-thia-3,5,12,19-tetrazatricyclo[12.3.1.14,8]nonadeca-1(18),4(19),5,7,14,16-hexaen-13-one]
Ent. A Max Activity (CFTR [1]; Enteroid Assay A): +++ (+++ is >600%)
EC50 (CFTR [1]; Enteroid Assay A): 3000 to 30000 nM
ring closure, yield after HPLC (from Cc1cccc(C)c1-c1cc(O[C@H](C)CN)nc(NS(=O)(=O)c2cccc(C(=O)O)c2)n1, amide bond, 13-membered ring, HATU/DIEA, DMF, 46.7 mM, 25.0 °C, 1.0 h, 2 steps): 46%
Ent. B Max Activity (CFTR [2]; Enteroid Assay B): ++ (++ is 30-60%)
EC50 (CFTR [2]; Enteroid Assay B): 3000 to 30000 nM
